Data on 14 compounds can be found in US20140343000A1 (priority 2011, published 2014).

The structures appear in SMILES notation. Read-outs that look alike come from different tables or passages of the source. A value given as a limit tells only on which side of the number the result lay.

In the test the test system is recombinant NL4-3 virus (Renilla luciferase in nef, Gag P373S; NLRluc) in MT-2 cells. Kind of test: whole plant or invertebrate. It is filed as cell-based, HIV. The note with it: Renilla. The procedure: MT-2 cells and 293T cells were obtained from the NIH AIDS Research and Reference Reagent Program. MT-2 cells were propagated in RPMI 1640 media supplemented with 10% heat inactivated fetal bovine serum, […]. The 293T cells were propagated in DMEM media supplemented with 10% heat inactivated fetal bovine serum (FBS), 100 units/ml penicillin G and 100 μg/ml streptomycin. The proviral DNA clone of NL4-3 was obtained from the NIH AIDS Research and Reference Reagent Program. A recombinant NL4-3 virus, in which a section of the nef gene from NL4-3 was replaced with the Renilla luciferase gene, was used as a reference virus. In addition, residue Gag P373 was converted to P373S. Briefly, the recombinant virus was prepared by transfection of the altered proviral clone of NL4-3. Transfections were performed in 293T cells using LipofectAMINE PLUS from Invitrogen (Carlsbad, Calif.), according to manufacturer's instruction. The virus was titered in MT-2 cells using luciferase enzyme activity as a marker. Luciferase was quantitated using the Dual Luciferase kit from Promega (Madison, Wis.), with modifications to the manufacturer's protocol. The diluted Passive Lysis solution was pre-mixed with the re-suspended Luciferase Assay Reagent and the re-suspended Stop & Glo Substrate (2:1:1 ratio). Fifty (50) μL of the mixture was added to each aspirated well on assay plates and luciferase activity was measured immediately on a Wallac TriLux (Perkin-Elmer). Antiviral activities of inhibitors toward the recombinant virus were quantified by measuring luciferase activity in cells infected for 4-5 days with NLRluc recombinants in the presence serial dilutions of the inhibitor. Table 1 is the key for the data in Table 2.

The mark [1] stands for this setting: NL43, luciferase activity in cells infected for 4-5 days with NLRluc recombinants, serial dilutions of inhibitor, class symbols (key in Table 1), read-out: EC50.

In general, EC50 refers to the midpoint of the concentration-response curve. Turning to `C=C(C)[C@@H]1CC[C@]2(NCCN3CCCC3=O)CC[C@]3(C)[C@H](CC[C@@H]4[C@@]5(C)CC=C(c6ccc(C(=O)O)c(F)c6)C(C)(C)[C@@H]5CC[C@]43C)[C@@H]12` [Example A4, 2-fluoro-4-((1R,3aS,5aR,5bR,7aR,11aS,11bR,13aR,13bR)-5a,5b,8,8,11a-pentamethyl-3a-(2-(2-oxopyrrolidin-1-yl)ethylamino)-1-(prop-1-en-2-yl)-2,3,3a,4,5,5a,5b,6,7,7a,8,11,11a,11b,12,13,13a,13b-octadecahydro-1H-cyclopenta[a]chrysen-9-yl)benzoic acid], under setting [1], the EC50 is below 100 nM.
Turning to `C=C(C)[C@@H]1CC[C@]2(NC(=O)CN(C)CCOC)CC[C@]3(C)[C@H](CC[C@@H]4[C@@]5(C)CC=C(c6ccc(C(=O)O)cc6)C(C)(C)[C@@H]5CC[C@]43C)[C@@H]12` [Example 86, 4-((1R,3aS,5aR,5bR,7aR,11aS,11bR,13aR,13bR)-3a-(2-((2-methoxyethyl)(methyl)amino)acetamido)-5a,5b,8,8,11a-pentamethyl-1-(prop-1-en-2-yl)-2,3,3a,4,5,5a,5b,6,7,7a,8,11,11a,11b,12,13,13a,13b-octadecahydro-1H-cyclopenta[a]chrysen-9-yl)benzoic acid], under setting [1], the EC50 is below 100 nM.
`C=C(C)[C@@H]1CC[C@]2(NCCN3CCS(=O)(=O)CC3)CC[C@]3(C)[C@H](CC[C@@H]4[C@@]5(C)CC=C(c6ccc(C(=O)O)cc6)C(C)(C)[C@@H]5CC[C@]43C)[C@@H]12` [Example 137, 4-((1R,3aS,5aR,5bR,7aR,11aS,11bR,13aR,13bR)-3a-((2-(1,1-dioxido-4-thiomorpholinyl)ethyl)amino)-1-isopropenyl-5a,5b,8,8,11a-pentamethyl-2,3,3a,4,5,5a,5b,6,7,7a,8,11,11a,11b,12,13,13a,13b-octadecahydro-1H-cyclopenta[a]chrysen-9-yl)benzoic acid]: under setting [1], the half-maximal effective concentration (EC50) was below 100 nM.
On the same count and under the same terms, next, `C=C(C)[C@@H]1CC[C@]2(NCCN3CCN(C(=O)C(C)C)CC3)CC[C@]3(C)[C@H](CC[C@@H]4[C@@]5(C)CC=C(c6ccc(C(=O)O)cc6)C(C)(C)[C@@H]5CC[C@]43C)[C@@H]12` [Example B64, 4-((1R,3aS,5aR,5bR,7aR,11aS,11bR,13aR,13bR)-3a-((2-(4-isobutyrylpiperazin-1-yl)ethyl)amino)-5a,5b,8,8,11a-pentamethyl-1-(prop-1-en-2-yl)-2,3,3a,4,5,5a,5b,6,7,7a,8,11,11a,11b,12,13,13a,13b-octadecahydro-1H-cyclopenta[a]chrysen-9-yl)benzoic acid]: below 100 nM; `C=C(C)[C@@H]1CC[C@]2(NC(=O)NCCN(C)CCO)CC[C@]3(C)[C@H](CC[C@@H]4[C@@]5(C)CC=C(c6ccc(C(=O)O)cc6)C(C)(C)[C@@H]5CC[C@]43C)[C@@H]12` [Example 23, 4-((1R,3aS,5aR,5bR,7aR,11aS,11bR,13aR,13bR)-3a-(3-(2-((2-hydroxyethyl)(methyl)amino)ethyl)ureido)-5a,5b,8,8,11a-pentamethyl-1-(prop-1-en-2-yl)-2,3,3a,4,5,5a,5b,6,7,7a,8,11,11a,11b,12,13,13a,13b-octadecahydro-1H-cyclopenta[a]chrysen-9-yl)benzoic acid]: below 100 nM; `C=C(C)[C@@H]1CC[C@]2(NCCN3CCN(C(C)(C)C)CC3)CC[C@]3(C)[C@H](CC[C@@H]4[C@@]5(C)CC=C(c6ccc(C(=O)O)cc6)C(C)(C)[C@@H]5CC[C@]43C)[C@@H]12` [Example B27, 4-((1R,3aS,5aR,5bR,7aR,11aS,11bR,13aR,13bR)-3a-((2-(4-(tert-butyl)piperazin-1-yl)ethyl)amino)-5a,5b,8,8,11a-pentamethyl-1-(prop-1-en-2-yl)-2,3,3a,4,5,5a,5b,6,7,7a,8,11,11a,11b,12,13,13a,13b-octadecahydro-1H-cyclopenta[a]chrysen-9-yl)benzoic acid]: below 100 nM.
As to `C=C(C)[C@@H]1CC[C@]2(NCc3ccco3)CC[C@]3(C)[C@H](CC[C@@H]4[C@@]5(C)CC=C(c6ccc(C(=O)O)cc6)C(C)(C)[C@@H]5CC[C@]43C)[C@@H]12` [Example 155, 4-((1R,3aS,5aR,5bR,7aR,11aS,11bR,13aR,13bR)-3a-(furan-2-ylmethylamino)-5a,5b,8,8,11a-pentamethyl-1-(prop-1-en-2-yl)-2,3,3a,4,5,5a,5b,6,7,7a,8,11,11a,11b,12,13,13a,13b-octadecahydro-1H-cyclopenta[a]chrysen-9-yl)benzoic acid], the EC50 under setting [1] was below 100 nM.
For the compound `C=C(C)[C@@H]1CC[C@]2(NC(=O)CNCCO)CC[C@]3(C)[C@H](CC[C@@H]4[C@@]5(C)CC=C(c6ccc(C(=O)O)cc6)C(C)(C)[C@@H]5CC[C@]43C)[C@@H]12` [Example 106, 4-((1R,3aS,5aR,5bR,7aR,11aS,11bR,13aR,13bR)-3a-(2-(2-hydroxyethylamino)acetamido)-5a,5b,8,8,11a-pentamethyl-1-(prop-1-en-2-yl)-2,3,3a,4,5,5a,5b,6,7,7a,8,11,11a,11b,12,13,13a,13b-octadecahydro-1H-cyclopenta[a]chrysen-9-yl)benzoic acid], under setting [1], the concentration for a half-maximal effect (EC50) is below 100 nM.
The same measure, in the same setting: next, `C=C(C)[C@@H]1CC[C@]2(NC(=O)N[C@H](C)C(=O)O)CC[C@]3(C)[C@H](CC[C@@H]4[C@@]5(C)CC=C(c6ccc(C(=O)O)cc6)C(C)(C)[C@@H]5CC[C@]43C)[C@@H]12` [Example 19, 4-((1R,3aS,5aR,5bR,7aR,11aS,11bR,13aR,13bR)-3a-(3-((R)-1-carboxyethyl)ureido)-5a,5b,8,8,11a-pentamethyl-1-(prop-1-en-2-yl)-2,3,3a,4,5,5a,5b,6,7,7a,8,11,11a,11b,12,13,13a,13b-octadecahydro-1H-cyclopenta[a]chrysen-9-yl)benzoic acid]: below 100 nM; `C=C(C)[C@@H]1CC[C@]2(NC(=O)N(CCCO)CCN3CCS(=O)(=O)CC3)CC[C@]3(C)[C@H](CC[C@@H]4[C@@]5(C)CC=C(c6ccc(C(=O)O)cc6)C(C)(C)[C@@H]5CC[C@]43C)[C@@H]12` [Example 66, 4-((1R,3aS,5aR,5bR,7aR,11aS,11bR,13aR,13bR)-3a-(((2-(1,1-dioxido-4-thiomorpholinyl)ethyl)(3-hydroxypropyl)carbamoyl)amino)-1-isopropenyl-5a,5b,8,8,11a-pentamethyl-2,3,3a,4,5,5a,5b,6,7,7a,8,11,11a,11b,12,13,13a,13b-octadecahydro-1H-cyclopenta[a]chrysen-9-yl)benzoic acid]: below 100 nM; `CC(C)[C@@H]1CC[C@]2(NCCN3CCS(=O)(=O)CC3)CC[C@]3(C)[C@H](CC[C@@H]4[C@@]5(C)CC[C@H](c6ccc(C(=O)O)cc6)C(C)(C)[C@@H]5CC[C@]43C)[C@@H]12` [Example B2, 4-((1S,3aS,5aR,5bR,7aS,9S,11aS,11bR,13aR,13bR)-3a-((2-(1,1-dioxidothiomorpholino)ethyl)amino)-1-isopropyl-5a,5b,8,8,11a-pentamethylicosahydro-1H-cyclopenta[a]chrysen-9-yl)benzoic acid]: below 100 nM.
For the compound `C=C(C)[C@@H]1CC[C@]2(NCCNC3CCS(=O)(=O)C3)CC[C@]3(C)[C@H](CC[C@@H]4[C@@]5(C)CC=C(c6ccc(C(=O)O)cc6)C(C)(C)[C@@H]5CC[C@]43C)[C@@H]12` (stereo partly drawn) [Example B8, 4-((1R,3aS,5aR,5bR,7aR,11aS,11bR,13aR,13bR)-3a-((2-((1,1-dioxidotetrahydrothiophen-3-yl)amino)ethyl)amino)-5a,5b,8,8,11a-pentamethyl-1-(prop-1-en-2-yl)-2,3,3a,4,5,5a,5b,6,7,7a,8,11,11a,11b,12,13,13a,13b-octadecahydro-1H-cyclopenta[a]chrysen-9-yl)benzoic acid], the EC50 (NL43) was below 100 nM.
For the compound `C=C(C)[C@@H]1CC[C@]2(NCCCN3CCCC3=O)CC[C@]3(C)[C@H](CC[C@@H]4[C@@]5(C)CC=C(c6ccc(C(=O)O)c(F)c6)C(C)(C)[C@@H]5CC[C@]43C)[C@@H]12` [Example A5, 2-fluoro-4-((1R,3aS,5aR,5bR,7aR,11aS,11bR,13aR,13bR)-5a,5b,8,8,11a-pentamethyl-3a-(3-(2-oxopyrrolidin-1-yl)propylamino)-1-(prop-1-en-2-yl)-2,3,3a,4,5,5a,5b,6,7,7a,8,11,11a,11b,12,13,13a,13b-octadecahydro-1H-cyclopenta[a]chrysen-9-yl)benzoic acid], the 50% effective concentration (EC50) under setting [1] was below 100 nM.
As to `C=C(C)[C@@H]1CC[C@]2(NCCC(=O)O)CC[C@]3(C)[C@H](CC[C@@H]4[C@@]5(C)CC=C(c6ccc(C(=O)O)cc6)C(C)(C)[C@@H]5CC[C@]43C)[C@@H]12` [Example B12, 4-((1R,3aS,5aR,5bR,7aR,11aS,11bR,13aR,13bR)-3a-((2-carboxyethyl)amino)-5a,5b,8,8,11a-pentamethyl-1-(prop-1-en-2-yl)-2,3,3a,4,5,5a,5b,6,7,7a,8,11,11a,11b,12,13,13a,13b-octadecahydro-1H-cyclopenta[a]chrysen-9-yl)benzoic acid], the EC50 under setting [1] was below 100 nM.
